US7790461B2, “Nano-emulsion technology for drug elution” (Medtronic MiniMed, Inc., priority 2007, dated 2010)

Tests used:
[1] = 0.022 mg/mL
Method: To evaluate buffers with different pH, eleven milligrams of Dexamethasone Acetate was dissolved in 500 mL of media (different pH adjusted buffers).

[2] = Stability of drug in elution media; type: physicochemical; conditions: length of the study
Method: The mobile phase preparation and choice of the column were instructed in the Dexamethasone Acetate monograph USP29-NF24. The mobile phase A consisted of pH 4.1 formate buffer and acetonitrile (3:2), and mobile phase B consisted of pH 4.1 formate buffer and acetonitrile (9:1). The chromatographic column (USP L11) used was an Agilent Zorbax SB-Phenyl, 4.6 mm×250 mm, 5 μm. A gradient was used with 1 mL/min flow rate. The run time was about 70 minutes. […] The injection volume for standard and samples was 100 μL.

stability with respect to pH (order) [1]: pH 3>pH 5≅acetate pH 5.7>water>pH 7>pH 9
stability in the media [2]: stable
Structure (SMILES): CC(=O)OCC(=O)[C@@]1(O)[C@H](C)C[C@H]2[C@@H]3CCC4=CC(=O)C=C[C@]4(C)[C@@]3(F)[C@@H](O)C[C@@]21C [Dexamethasone Acetate]
